Results reported in US11161845B2, “Pyrrolopyridine-aniline compounds for treatment of dermal disorders” (Nflection Therapeutics, Inc., priority 2017, dated 2021).

Key:
[1] = tested on: MDCK-MDR1 cells; test: MDCK-MDR1 bi-directional transport assay; settings: 5 μM
Protocol: (§1) MDCK-MDR1 is a stable-transfected cell line originating from MDCK cells, with over-expression of human MDR1 gene. The cell line is widely used for the identification and characterization of P-gp substrates and inhibitors.
(§2) MDCK-MDR1 cells were plated into 96-well Millipore Millicell-96 plates at 7,500 cells/75 μL/well and incubated for three days at 37° C. with 5% CO2. Cells were washed with Hank's Balanced Salt Solution (HBSS) with 5 mM HEPES for 30 minutes before starting the experiment. Test compound solutions were prepared by diluting DMSO stock into HBSS buffer, resulting in a final DMSO concentration of 0.1%. Prior to the experiment, cell monolayer integrity was verified by […] electrical resistance (TEER). Transport experiment was initiated by adding test compounds to the apical (75 μL) or basal (250 μL) side. Transport plates were incubated at 37° C. in a humidified incubator with 5% CO2. Samples were taken from the donor and acceptor compartments after one hour and analyzed by liquid chromatography with tandem mass spectrometry (LC/MS/MS).
(§3) Digoxin was used as reference control.
(§4) Apparent permeability (Papp) values were calculated using the following equation: Papp=(dQ/dt)/A/Co; where dQ/dt is the initial rate of amount of test compound transported across cell monolayer, A is the surface area of the filter membrane, and Co is the initial concentration of the test compound, calculated for each direction using a 4-point calibration curve by LC/MS/MS.
(§5) Net flux ratio between the two directional transports was calculated by the following equation: Ratio=Papp, B-A/Papp, A-B; where Papp, B-A and Papp, A-B represent the apparent permeability of test compound from the basal-to-apical and apical-to-basal side of the cellular monolayer, respectively.
(§6) Recovery was calculated based on the compound concentration at the end of the experiment, compared to that at the beginning of the experiment, adjusted for volumes.
(§7) A net flux ratio greater than two was considered a positive result for substrate determination. […] If the addition of a known P-gp inhibitor to the experiment reduces the net flux ratio by a significant amount (more than 50% reduction or reduces the ratio to close to unity), it is likely that the compound tested is a P-gp substrate.

[2] = tested on: P-gp (human MDR1); test: MDCK-MDR1 bi-directional transport assay; settings: dog; for Papp A→B at 1 h, 5 μM / Papp B→A at 1 h, 5 μM: MDCK-MDR1, Papp
Protocol: as §1, §2, §3, §4, §5, §6, §7

[3] = molecular target: T1, MEK1 (Homo sapiens, UniProt Q02750); test: MEK inhibition assay, Biological Example 1a (33P-ATP, P81 filter-binding); settings: read-out: Assay 1: biochemical MEK IC50
T1 construct: N-terminal His-tagged recombinant human full length protein; His (N); purchased Invitrogen PV3303; host or cells: insect cells
Protocol: MEK1 inhibitory activity of compounds were tested using the following procedure. […] Activated in vitro by RAF1. MW=49.2 kDa, GenBank Accession No. NP_002746. • Substrate: 5 μM ERK2 (K52R), • Kinase-dead mutant, (GenBank Accession No. NM_0011949), aa2-358 with N-terminal His6 tag, MW=43.63 kDa, expressed in E. coli.
The substrate was prepared in freshly prepared Reaction Buffer. The kinase was delivered into the substrate solution and gently mixed. Test compounds were delivered in 100% DMSO into the kinase reaction mixture by Acoustic technology (Echo550; nanoliter range), and incubated for 20 min at room temperature. ^33P-ATP was delivered into the reaction mixture to initiate the reaction. The reaction mixture was incubated for 2 hours at room temperature. Kinase activity was detected by P81 filter-binding method.

[4] = S9 stability assay, human liver S9 fraction; format: in vitro ADME; settings: for CLint: known MEK compounds; for microsomal CLint at 1 μM / half-life at 1 μM: pH 7.4, Table 1, human liver S9 fraction; for microsomal CLint at 1 μM: read-out: CLint; for half-life at 1 μM: read-out: Liver S9 t1/2
Protocol: Compounds were assessed for metabolic stability in human skin by assessing their rate of disappearance from human S9 skin fraction. Similarly, compounds were assessed for metabolic stability in human liver by assessing their rate of disappearance from human S9 liver fraction. The protocol below can be used to assess the difference between skin and hepatic metabolism.
The assay was carried out in 96-well microtiter plates at 37° C. Reaction mixtures (25 μL) contained a final concentration of 1 μM test compound, 2 mg/mL liver or skin S9 protein, and 1 mM NADPH in buffer (100 mM potassium phosphate, pH 7.4 buffer with 1 mM EDTA, 3 mM MgCl2). At each of the time points (0, 15, 30, and 60 minutes), 150 μL of quench solution (100% acetonitrile with 0.1% formic acid) with internal standard was transferred to each well. Besides the zero minute controls, mixtures containing the same components except the NADPH were also prepared as the negative control. Verapamil or testosterone was included as a positive control to verify assay performance. Plates were sealed and centrifuged at 4° C. for 15 minutes at 4000 rpm. The supernatant was transferred to fresh plates for LC/MS/MS analysis.
All samples were analyzed on LC/MS/MS using an AB Sciex API 4000 instrument, coupled to a Shimadzu LC-20AD LC Pump system. Analytical samples were separated using a Waters Atlantis T3 dC18 reverse phase HPLC column (20 mm×2.1 mm) at a flow rate of 0.5 mL/min. The mobile phase consisted of 0.1% formic acid in water (solvent A) and 0.1% formic acid in 100% acetonitrile (solvent B).
The extent of metabolism was calculated as the disappearance of the test compound, compared to the 0-min control reaction incubations. Initial rates were calculated for the compound concentration and used to determine t1/2 values and subsequently, the intrinsic clearance, CLint=(0.693) (1/t1/2 (min)) (mL incubation/mg of S9 protein).

[5] = Compound levels in neck/back skin (LCMS), in vivo mouse model; set-up: species or system mice; settings: topical 1% trametinib
Protocol: (§8) Week 4 (Experiment end): Skin and blood were collected right before the last morning dose (N=3), 1 hour (N=3 mice), and 2 hours (N=3 mice) after final application; Blood draw: Plasma compound levels (LCMS); Skin biopsy: formalin fixed for histology and p-ERK staining, flash frozen for Western analysis and skin compound levels (LCMS)
Skin biopsy and GI tract sampling: Skin was wiped down with 100% ethanol and a 1 cm^2 biopsy was obtained from compound application site each mouse at the 25 day end of experiment (except as noted below). The skin was biopsied prior to final dose from 3 mice, 1 hour after last compound application from 3 mice, 2 hours after last compound application from 3 mice. Half of the specimen were immediately flash frozen for LCMS analysis and Western Blot Analysis. Half of the specimen was fixed for 24 hours in 10% formalin and then transferred to ethanol for immunohistochemistry. Gastrointestinal tract was also formalin fixed overnight then transferred to 70% ETOH for storage.
(§9) Compound level analysis: Liquid chromatography with mass spectrometry method (LCMS) was used to detect compound levels in the skin and plasma. Tissues were preprocessed prior to LCMS as follows. Tissues were minced and incubated with collagenase and then finally homogenized using the stainless steel beads prior to LCMS analysis. Calibration curves and a QC test were run with each assay.

[6] = Plasma LCMS compound levels, in vivo mouse model; set-up: species or system mice; settings: for concentration at 1 h: male, C57BL/6J, mouse, plasma; for Plasma LCMS Compound Levels: pre-dose (16 h)
Protocol: These mice were also shaved weekly.
as §8, §9

[7] = tested on: C57BL/6J mice; test: In vivo mouse model, skin and systemic toxicity of topical application (survival)
Source text: This study was designed to assess the skin toxicity and gross systemic toxicity of twice daily topical administration of a compound disclosed herein, as well as to evaluate the effect of metabolic lability on systemic toxicity.
Study Objective: The primary objective of this study was to characterize the skin and systemic toxicity of twice daily topical application of a compound disclosed herein, applied for 25 days in mice. Secondary objectives included determination of the 25-day skin and plasma compound levels of formulations containing three dosages of compound of Ex. 2 after application to 10% body surface area (BSA) murine skin; assessment of gross systemic toxicity from the application of compound of Ex. 2 after twice daily application to 10% BSA murine skin for 25 days; and determination of the correlation of skin and plasma compound levels with associated toxicity.
Mice: 8 week old male C57BL/6J mice (Jackson Laboratories) were shaved prior to start of study and weekly.
Compound application: Compounds were dissolved in a 50% DMSO/50% propyelene glycol vehicle. 0.125 mL of the following compounds were applied to the shaved dorsal back of mice (10% BSA) twice daily for 5 days per week for a total of 24 days. The second dose was applied 8 hours after first morning dose. All mice were shaved once per week at application site.
Oral trametinib was dissolved in 0.5% hydroxypropyl methylcellulose (Sigma-Aldrich) and 0.2% Tween-80 (Sigma-Aldrich) and administered by oral gavage (0.2 mL bolus or 10 mg/kg) once daily 5 days per week. These mice were also shaved weekly.
Weekly (Weeks 0-4): body weight measurements weekly, starting week 0 until experiment end; photographs of dorsal back and face of each mouse weekly, starting week 0 until experiment end; skin; and gross stool analysis assessed weekly for heme color, starting week 0 until experiment end.
The study planned for the mice to be sacrificed at Day 25.
Kaplan Meier curves were analyzed to determine progression to skin toxicity for each arm as compared with vehicle. T-test were used to compare compound levels at each dosage. Ki-67+ cells and p-ERK expression were also assessed on a cellular level via immunostaining. Western blots informed semi-quantitative changes in p-ERK expression.

T1 sequence (Q02750 whole entry): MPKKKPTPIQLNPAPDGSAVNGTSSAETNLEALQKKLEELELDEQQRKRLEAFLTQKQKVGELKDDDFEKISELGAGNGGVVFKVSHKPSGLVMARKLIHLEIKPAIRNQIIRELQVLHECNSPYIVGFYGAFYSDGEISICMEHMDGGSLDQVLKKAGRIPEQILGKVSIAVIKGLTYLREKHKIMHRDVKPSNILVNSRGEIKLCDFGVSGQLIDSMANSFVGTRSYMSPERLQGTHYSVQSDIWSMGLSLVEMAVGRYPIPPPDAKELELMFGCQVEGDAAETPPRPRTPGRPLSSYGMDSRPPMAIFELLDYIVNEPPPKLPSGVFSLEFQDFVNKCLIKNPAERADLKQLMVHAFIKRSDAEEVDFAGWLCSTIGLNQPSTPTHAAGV

## C[C@H]1O[C@@H](O[C@H]2[C@@H](O)C[C@H](O[C@H]3[C@@H](O)C[C@H](O[C@H]4CC[C@@]5(C)[C@H](CC[C@@H]6[C@@H]5C[C@@H](O)[C@]5(C)[C@@H](C7=CC(=O)OC7)CC[C@]65O)C4)O[C@@H]3C)O[C@@H]2C)C[C@H](O)[C@@H]1O [Digoxin]
[1]
  Recover Rate: 96%
[1]; single values
  Papp, A-B Value: 1.6 ×10⁻⁶ cm/s
  Papp, B-A Value: 14.1 ×10⁻⁶ cm/s
[2]; MDCK-MDR1
  efflux ratio at 1 h, 5 μM: 9.7
[2]; A-B Mean
  Papp A→B at 1 h, 5 μM: 1.5 ×10⁻⁶ cm/s
[2]; A-B Value, single values
  Papp A→B at 1 h, 5 μM: 1.3 ×10⁻⁶ cm/s
[2]; B-A Mean
  Papp B→A at 1 h, 5 μM: 14.3 ×10⁻⁶ cm/s
[2]; B-A Value, single values
  Papp B→A at 1 h, 5 μM: 14.6 ×10⁻⁶ cm/s

## C#Cc1ccc(Nc2c(C(=O)NOCCO)c3cccnc3n2C)c(F)c1 [Example 3, 2-((4-Ethynyl-2-fluorophenyl)amino)—N-(2-hydroxyethoxy)-1-methyl-1H-pyrrolo[2,3-b]pyridine-3-carboxamide]
[3]
  IC50: 2450 nM

## O=C(NOCC1CC1)c1ccc(F)c(F)c1Nc1ccc(I)cc1Cl [Example C1]
[4]
  CLint: 10.37 μL/min/mg protein
  microsomal CLint at 1 μM: 10.4 µL/min/mg
  half-life at 1 μM: 0.55 h

## O=C(NOC[C@H](O)CO)c1ccc(F)c(F)c1Nc1ccc(I)cc1F [Example C2]
[4]
  CLint: 1.02 μL/min/mg protein
  microsomal CLint at 1 μM: 1.02 µL/min/mg
  half-life at 1 μM: 5.67 h

## Cn1cnc2c(F)c(Nc3ccc(Br)cc3F)c(C(=O)NOCCO)cc21 [Example C3]
[4]
  CLint: 1.25 μL/min/mg protein
  microsomal CLint at 1 μM: 1.25 µL/min/mg
  half-life at 1 μM: 4.62 h

## Cn1cnc2c(F)c(Nc3ccc(Br)cc3Cl)c(C(=O)NOCCO)cc21 [Example C4]
[4]
  CLint: 2.50 μL/min/mg protein
  microsomal CLint at 1 μM: 2.5 µL/min/mg
  half-life at 1 μM: 2.3 h

## O=C(NOCCO)c1ccc2cncn2c1Nc1ccc(I)cc1F [Example C5]
[4]
  CLint: 6.98 μL/min/mg protein
  microsomal CLint at 1 μM: 6.98 µL/min/mg
  half-life at 1 μM: 0.833 h

## CC(=O)Nc1cccc(-n2c(=O)n(C3CC3)c(=O)c3c(Nc4ccc(I)cc4F)n(C)c(=O)c(C)c32)c1 [Example C6]
[4]
  CLint: 0.86 μL/min/mg protein
  microsomal CLint at 1 μM: 0.86 µL/min/mg
  half-life at 1 μM: 6.7 h

## O=C(NC[C@@H](O)CO)c1ccncc1Nc1ccc(I)cc1F [Example C7]
[4]
  CLint: 1.29 μL/min/mg protein
  microsomal CLint at 1 μM: 1.29 µL/min/mg
  half-life at 1 μM: 4.47 h

## CC(=O)Nc1cccc(-n2c(=O)n(C3CC3)c(=O)c3c(Nc4ccc(I)cc4F)n(C)c(=O)c(C)c32)c1 [trametinib, reference compound]
[5]; 1 h
  Compound Levels in Neck/Back Skin: 3626.06 µg/mL
[5]; pre-dose (16 h)
  Compound Levels in Neck/Back Skin: 4520.39 µg/mL
[6]; 10 mg/kg, oral trametinib
  concentration at 1 h: 0.0751 µg/mL
[6]; topical 1% trametinib
  concentration at 1 h: 2.81 µg/mL
  Plasma LCMS Compound Levels: 1339.33 ng/mL
[6]; oral trametinib
  Plasma LCMS Compound Levels: 39.93 ng/mL
[7]; oral trametinib 0.75 mg/kg daily gavage 5x/week, Day 0
  Survival Rates: 100%
[7]; oral trametinib 0.75 mg/kg daily gavage 5x/week, Day 3
  Survival Rates: 90%
[7]; oral trametinib 0.75 mg/kg daily gavage 5x/week, Day 6
  Survival Rates: 70%
[7]; oral trametinib 0.75 mg/kg daily gavage 5x/week, Day 9
  Survival Rates: 70%
[7]; oral trametinib 0.75 mg/kg daily gavage 5x/week, Day 12
  Survival Rates: 70%
[7]; oral trametinib 0.75 mg/kg daily gavage 5x/week, Day 15
  Survival Rates: 70%
[7]; oral trametinib 0.75 mg/kg daily gavage 5x/week, Day 18
  Survival Rates: 70%
[7]; oral trametinib 0.75 mg/kg daily gavage 5x/week, Day 21
  Survival Rates: 70%
[7]; oral trametinib 0.75 mg/kg daily gavage 5x/week, Day 24
  Survival Rates: 70%
[7]; oral trametinib 0.75 mg/kg daily gavage 5x/week, Day 25
  Survival Rates: 70%
[7]; topical Trametinib 1%, twice daily 5 days per week, 10% BSA, Day 0
  Survival Rates: 100%
[7]; topical Trametinib 1%, twice daily 5 days per week, 10% BSA, Day 3
  Survival Rates: 100%
[7]; topical Trametinib 1%, twice daily 5 days per week, 10% BSA, Day 6
  Survival Rates: 100%
[7]; topical Trametinib 1%, twice daily 5 days per week, 10% BSA, Day 9
  Survival Rates: 100%
[7]; topical Trametinib 1%, twice daily 5 days per week, 10% BSA, Day 12
  Survival Rates: 100%
[7]; topical Trametinib 1%, twice daily 5 days per week, 10% BSA, Day 15
  Survival Rates: 80%
[7]; topical Trametinib 1%, twice daily 5 days per week, 10% BSA, Day 18
  Survival Rates: 0%
[7]; topical Trametinib 1%, twice daily 5 days per week, 10% BSA, Day 21
  Survival Rates: 0%
[7]; topical Trametinib 1%, twice daily 5 days per week, 10% BSA, Day 24
  Survival Rates: 0%
[7]; topical Trametinib 1%, twice daily 5 days per week, 10% BSA, Day 25
  Survival Rates: 0%
[7]; topically-applied 1%, Day 18
  mortality / weight loss: found dead, or had to be sacrificed due to unacceptable weight loss
